Source: US10392422B2, “Macrocyclic broad spectrum antibiotics” (priority 2014, dated 2019)
Values after ≈ are worked out from the molar mass of the structure shown. Read-outs that look alike come from different tables or passages of the source.

How the values were obtained:
Experiment in all cases: MIC, broth micro-dilution technique (CLSI)
[1] = test system: Escherichia coli MC4100 harboring the IMP4213; format: cell-based; details: 35° C., 22 hours; for MIC: Escherichia coli, 22 h; for MIC (μg/mL) E. coli: Table 2 modified protocol: serial 2-fold dilutions starting from 4 μg/mL
Summary of the method: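 CLSI broth microdilution in cation-adjusted Mueller Hinton broth with 0.002% Tween-80. Ten 2-fold dilutions started from 64 μg/ml, or from 4 μg/mL in the modified protocol. Inoculum at final OD600 0.0005; MIC read after 22 h at 35 °C. E. coli strain carries imp4213 (increased outer-membrane permeability).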

[2] = test system: Methicillin Resistant Staphylococcus aureus strain USA 300 (NRS384); format: cell-based; details: for MIC: Staphylococcus aureus, 22 h, read-out: MIC (μg/mL) S. aureus
Summary of the method: (§1)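 CLSI broth microdilution in cation-adjusted Mueller Hinton broth with 0.002% v/v Tween-80. Compounds were serially 2-fold diluted over 10 concentrations from 64 μg/ml, or from 4 μg/mL in a modified protocol; inoculum at final OD600 0.0005, incubated 35° C for 22 hours.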

MRSA COL (NRS100) = format: cell-based, Staphylococcus aureus; details: for MIC: Staphylococcus aureus, 22 h, read-out: MIC (μg/mL) (COL)
Summary of the method: as §1

[3] = read-out: MIC (μg/mL) E. coli, Table 2 modified protocol: serial 2-fold dilutions starting from 4 μg/mL
[4] = Table 2 modified protocol: serial 2-fold dilutions starting from 4 μg/mL, 35° C., 22 hours
[5] = read-out: MIC (μg/mL) E. coli, Table 1 protocol: serial 2-fold dilutions starting from 64 μg/ml
[6] = Table 1 protocol: serial 2-fold dilutions starting from 64 μg/ml, 35° C., 22 hours

SMILES | MIC [1, 3] [µg/mL] | MIC [2] [µg/mL] | MIC (MRSA COL (NRS100)) [µg/mL] | MIC [1, 5] [µg/mL] | MIC [2, 6] [µg/mL] | MIC (MRSA COL (NRS100); [6]) [µg/mL] | further results
C[C@@H]1NC(=O)[C@@H](N(C)C(=O)[C@H](CCCCN)NC(=O)c2cccc(-c3ccc(Cl)cc3)c2)c2ccc(OCCN)c(c2)-c2cc(ccc2OCCN)C[C@@H](C(=O)O)NC1=O [Compound 282] | 1 (≈ 1.19 µM) | > 4 | 2 (≈ 2.37 µM) |  |  |  | 
C[C@@H]1NC(=O)[C@@H](N(C)C(=O)[C@H](CCCCN)NC(=O)c2ccc(-c3ccc(Cl)cc3)cc2)c2ccc(OCCN)c(c2)-c2cc(ccc2OCCN)C[C@@H](C(=O)N[C@@H](C)C(=O)c2[nH]ncc2[N+](=O)[O-])NC1=O [Compound 273] |  |  |  |  |  |  | MIC (μg/mL) E. coli [1]: 4 µg/mL (≈ 3.97 µM); MIC (μg/mL) S. aureus [2, 4]: 0.75 µg/mL (≈ 0.744 µM); MIC (μg/mL) (COL) (MRSA COL (NRS100); [4]): 0.38 µg/mL (≈ 0.377 µM)
CCCCCCCCS(=O)(=O)N[C@@H](CO)C(=O)N(C)[C@@H]1C(=O)N[C@@H](C)C(=O)N[C@H](C(=O)N[C@@H](C)C(C)=O)Cc2ccc(OCCN)c(c2)-c2cc1ccc2OCCN.O=CO [Compound 259] |  |  |  |  |  |  | MIC (μg/mL) E. coli [1]: >4 µg/mL; MIC (μg/mL) S. aureus [2, 4]: 0.75 µg/mL; MIC (μg/mL) (COL) (MRSA COL (NRS100); [4]): 0.38 µg/mL
CCCCc1ccc(-c2ccc(C(=O)N[C@@H](CN)C(=O)N(C)[C@@H]3C(=O)N[C@@H](C)C(=O)N[C@H](C(=O)N[C@@H](C)B4O[C@@H]5C[C@@H]6C[C@@H](C6(C)C)[C@]5(C)O4)Cc4ccc(OCCN)c(c4)-c4cc3ccc4OCCN)cc2)cc1 [Compound 317] |  | 0.13 (≈ 0.127 µM) | 0.063 (≈ 0.0613 µM) | 0.13 (≈ 0.127 µM) |  |  | 
C[C@@H]1NC(=O)[C@@H](N(C)C(=O)[C@H](CCCCN)NC(=O)c2ccc(-c3ccc(Cl)cc3)cc2)c2ccc(OCCN)c(c2)-c2cc(ccc2OCCN)C[C@@H](C(=O)N[C@@H](C)C(=O)c2[nH]ncc2N)NC1=O [Compound 274] | 4 (≈ 4.09 µM) |  |  |  |  |  | MIC [2, 4]: > 4 µg/mL; MIC (MRSA COL (NRS100); [4]): 1.5 µg/mL (≈ 1.53 µM)
C[C@@H]1NC(=O)[C@@H](N(C)C(=O)[C@H](CCCCN)NC(=O)c2ccc(-c3ccc(Cl)cc3)cc2)c2ccc(O)c(c2)-c2cc(ccc2O)C[C@@H](C(=O)N[C@@H](C)C(=O)C(=O)Nc2cn[nH]c2)NC1=O [Compound 242] | > 4 |  |  |  |  |  | MIC [2, 4]: > 4 µg/mL; MIC (MRSA COL (NRS100); [4]): 4 µg/mL (≈ 4.35 µM)
CCCCCCCCCCCCCC(=O)N[C@@H](CCCN)C(=O)N(C)[C@@H]1C(=O)N[C@@H](C)C(=O)N[C@H](C(=O)O)Cc2ccc(OCCN)c(c2)-c2cc1ccc2OCCN [Compound 303] | 0.023 (≈ 0.0279 µM) | 0.13 (≈ 0.158 µM) | 0.023 (≈ 0.0279 µM) |  |  |  | 
CCCCc1ccc(-c2ccc(C(=O)N[C@@H](CCCN)C(=O)N(C)[C@@H]3C(=O)N[C@@H](C)C(=O)N[C@H](C(=O)NC/C=C/S(C)(=O)=O)Cc4ccc(OCCN)c(c4)-c4cc3ccc4OCCN)cc2)cc1 [Compound 327] | 0.5 (≈ 0.517 µM) |  |  |  |  |  | MIC [2, 4]: 0.5 µg/mL (≈ 0.517 µM); MIC (MRSA COL (NRS100); [4]): 0.13 µg/mL (≈ 0.134 µM)
CCOS(=O)(=O)/C=C/[C@H](C)NC(=O)[C@@H]1Cc2ccc(O)c(c2)-c2cc(ccc2O)[C@H](N(C)C(=O)[C@H](CCCCN)NC(=O)c2ccc(-c3ccc(Cl)cc3)cc2)C(=O)N[C@@H](C)C(=O)N1 [Compound 248] |  | 21 (≈ 22.9 µM) | 4 (≈ 4.36 µM) | > 64 |  |  | 
CC(=O)[C@H](C)NC(=O)[C@@H]1Cc2ccc(O)c(c2)-c2cc(ccc2O)[C@H](N(C)C(=O)[C@H](CCCCN)NC(=O)c2ccc(-c3ccc(Cl)cc3)cc2)C(=O)N[C@@H](C)C(=O)N1 [Compound 109] |  | 4 (≈ 4.85 µM) | 1 (≈ 1.21 µM) | 64 (≈ 77.5 µM) |  |  | 
C[C@@H]1NC(=O)[C@@H](N(C)C(=O)[C@H](CCCCN)NC(=O)c2ccc(-c3ccc(-c4ccccc4)cc3)cc2)c2ccc(OCCN)c(c2)-c2cc(ccc2OCCN)C[C@@H](C(=O)O)NC1=O [Compound 287] | 0.047 (≈ 0.0532 µM) | 0.25 (≈ 0.283 µM) | 0.094 (≈ 0.106 µM) |  |  |  | 
C[C@@H]1NC(=O)[C@@H](N(C)C(=O)[C@H](CCCCN)NC(=O)c2ccc(-c3ccc(Cl)cc3)cc2)c2ccc(O)c(c2)-c2cc(ccc2O)C[C@@H](C(=O)NCC(=O)CF)NC1=O [Compound 253] | > 4 |  |  |  |  |  | MIC [2, 4]: > 4 µg/mL; MIC (MRSA COL (NRS100); [4]): 4 µg/mL (≈ 4.82 µM)
CCCCCCCCc1ccc(C(=O)N[C@@H](CCCN)C(=O)N(C)[C@@H]2C(=O)N[C@@H](C)C(=O)N[C@H](C(=O)O)Cc3ccc(OCCN)c(c3)-c3cc2ccc3OCCN)c(C)c1 [Compound 296] |  | 0.063 (≈ 0.0746 µM) | 0.063 (≈ 0.0746 µM) | 0.063 (≈ 0.0746 µM) |  |  | 
C[C@@H]1NC(=O)[C@@H](N(C)C(=O)[C@H](CCCCN)NC(=O)c2ccc(-c3ccc(Cl)cc3)cc2)c2ccc(O)c(c2)-c2cc(ccc2O)C[C@@H](C(=O)N[C@@H](C)C(=O)N2CCC[C@H]2C(=O)NN)NC1=O [Compound 186] |  |  |  | > 64 | 45 (≈ 47.9 µM) | 12 (≈ 12.8 µM) | 
C[C@H](NC(=O)[C@@H]1Cc2ccc(O)c(c2)-c2cc(ccc2OCCN)[C@H](N(C)C(=O)[C@H](CCCCN)NC(=O)c2ccc(-c3ccc(Cl)cc3)cc2)C(=O)N[C@@H](C)C(=O)N1)C(=O)CO [Compound 118] |  | 1 (≈ 1.13 µM) | 0.63 (≈ 0.712 µM) | 2 (≈ 2.26 µM) |  |  | 
CCCCCCCCCCCCCC(=O)N[C@@H](CC)C(=O)N(C)[C@@H]1C(=O)N[C@@H](C)C(=O)N[C@H](C(=O)O)Cc2ccc(OCCN)c(c2)-c2cc1ccc2OCCN [Compound 308] | 0.094 (≈ 0.118 µM) | 1 (≈ 1.26 µM) | 0.38 (≈ 0.478 µM) |  |  |  | 
C[C@@H]1NC(=O)[C@@H](N(C)C(=O)[C@H](CCCCN)NC(=O)c2ccc(-c3ccc(Cl)cc3)cc2)c2ccc(O)c(c2)-c2cc(ccc2O)C[C@@H](C(=O)N[C@@H](C)C(=O)C2CO2)NC1=O (stereo partly drawn) [Compound 104] |  |  |  | 2 (≈ 2.34 µM) | 2.8 (≈ 3.28 µM) | 2 (≈ 2.34 µM) | 
CC(=O)[C@H](C)NC(=O)[C@@H]1Cc2ccc(O)c(c2)-c2cc(ccc2OCCn2ccnc2)[C@H](N(C)C(=O)[C@H](CCCCN)NC(=O)c2ccc(-c3ccc(Cl)cc3)cc2)C(=O)N[C@@H](C)C(=O)N1 [Compound 331] |  |  |  | 8 (≈ 8.7 µM) | 16 (≈ 17.4 µM) | 2 (≈ 2.18 µM) | 
C[C@H](NC(=O)[C@@H]1Cc2ccc(O)c(c2)-c2cc(ccc2O)[C@H](N(C)C(=O)[C@H](CCCCN)NC(=O)c2ccc(-c3ccc(Cl)cc3)cc2)C(=O)N[C@@H](C)C(=O)N1)C(=O)N[C@@H]1CCNC1=O [Compound 137] |  |  |  | 32 (≈ 35.2 µM) | 32 (≈ 35.2 µM) | 8 (≈ 8.8 µM) | 
CCCCCCCCCNCCCC(=O)N[C@@H](CCCCN)C(=O)N(C)[C@@H]1C(=O)N[C@@H](C)C(=O)N[C@H](C(=O)N[C@@H](C)C(C)=O)Cc2ccc(O)c(c2)-c2cc1ccc2O [Compound 111] |  |  |  | > 64 | 23 (≈ 28 µM) | 4 (≈ 4.87 µM) | 
CCCCCCCCCCNCCC(=O)N[C@@H](CCCCN)C(=O)N(C)[C@@H]1C(=O)N[C@@H](C)C(=O)N[C@H](C(=O)N[C@@H](C)C(=O)CO)Cc2ccc(O)c(c2)-c2cc1ccc2OCCN [Compound 201] |  |  |  | 8 (≈ 9.08 µM) | 0.35 (≈ 0.397 µM) | 0.063 (≈ 0.0715 µM) | 
C[C@@H]1NC(=O)[C@@H](N(C)C(=O)[C@H](CCCCN)NC(=O)c2ccc(-c3ccc(Cl)cc3)cc2)c2ccc(O)c(c2)-c2cc(ccc2O)C[C@@H](C(=O)N[C@@H](C)C(=O)N2CCCC23CCNC3=O)NC1=O (stereo partly drawn) [Compound 160] |  |  |  | 64 (≈ 67.4 µM) | > 64 | > 64 | 
CCCCCCCCc1ccc(C(=O)N[C@@H](CCN)C(=O)N(C)[C@@H]2C(=O)N[C@@H](C)C(=O)N[C@H](C(=O)O)Cc3ccc(OCCN)c(c3)-c3cc2ccc3OCCN)c(C)c1 [Compound 302] | 0.0088 (≈ 0.0106 µM) | 0.11 (≈ 0.133 µM) | 0.039 (≈ 0.047 µM) |  |  |  | 
CC(=O)[C@H](C)NC(=O)[C@@H]1Cc2ccc(OCCN)c(c2)-c2cc(ccc2OCCN)[C@H](N(C)C(=O)[C@H](CCCCN)NC(=O)c2ccc(-c3ccc(Cl)cc3)cc2)C(=O)N[C@@H](C)C(=O)N1 [Compound 209] |  |  |  | 4 (≈ 4.39 µM) | 0.5 (≈ 0.549 µM) | 0.13 (≈ 0.143 µM) | 
C[C@@H]1NC(=O)[C@@H](N(C)C(=O)[C@H](CCCCN)NC(=O)c2ccc(-c3ccc(Cl)cc3)cc2)c2ccc(OCCN)c(c2)-c2cc(ccc2O)C[C@@H](C(=O)O)NC1=O [Compound 312] |  | 24 (≈ 30 µM) | 3 (≈ 3.75 µM) | 3 (≈ 3.75 µM) |  |  | 
